What all share (assay): inhibition of tumour cell growth, NCI panel, 48 h
In test [1] the test system is SN12C.
The subject of test [2] is LOX IMVI.
Test [3] deals with A498.
In test [4] the test system is UACC-62.
Test [5] relates to HL-60.
Test [6] has as its system SNB-75.
The test system of test [7] is SF-539.
For test [8], the system named is M14.
Test [9] deals with SF-268.
Test [10] concerns IGROV-1.
Test [11] has as its system HCT-116.
Test [12] has as its system HT-29.
In test [13] the test system is HOP-92.
Test [14] concerns OVCAR-4.
For test [15], the system named is RXF 393.
Test [16] has as its system OVCAR-3.
Test [17] deals with OVCAR-5.
For test [18], the system named is U-251.
Test [19] relates to NCI/ADR-RES.

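Each compound was tested at five concentrations against cells in 96-well plates for 48 hours. The concentration for 50% growth inhibition is given as GI50.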 The source made the active and inactive calls. Cut-off read from the data, not from the text of the source: active = GI50 up to about 1.1 µM and inactive = higher. Where a SMILES comes first, the peptide text is derived from it. [ ]: non-standard residue; d: D form. The star is where a group is joined. Bn2Val = CC(C)[C@@H](C(=O)*)N(Cc1ccccc1)Cc1ccccc1; NHPiperonyl = c1cc2c(cc1CN*)OCO2; NMeV = CN[C@H](C(=O)O)C(C)C; dNMeA = CN[C@H](C)C(=O)O

Consider `COc1cccc(C=C2N=C(c3ccccc3)N(n3c(-c4ccccc4)nc4ccccc4c3=O)C2=O)c1`, for which the GI50 was 57.8 µM (inactive) in test [1]; 62.5 µM (inactive) in test [2]; 67.9 µM (inactive) in test [3]; 26.2 µM (inactive) in [4]; 25.1 µM (inactive) in test [5]; 44.4 µM (inactive) in [6]. The GI50 in test [7] is 43.2 µM (inactive); in test [8], 45.1 µM (inactive); in [9], 56.4 µM (inactive); in test [10], 30.1 µM (inactive); in test [11] it was 46 µM (inactive); in test [12] it was 40.9 µM (inactive).

In the case of `Cc1cc(C)nc(NS(=O)(=O)c2ccc(Nc3c4ccc(Cl)cc4nc4c(C(=O)NCCN(C)C)cccc34)cc2)n1`, the GI50 was > 100 µM (inactive) in [1]; 78 µM (inactive) in test [13]; > 100 µM (inactive) in test [2]; > 100 µM (inactive) in test [14]; > 100 µM (inactive) in test [3]; > 100 µM (inactive) in test [15]. For the same molecule, the GI50 in test [16], in test [4], in [5], in test [6], in test [7] and in [8] was > 100 µM (inactive) in each case. Besides, the GI50 in test [17], in [9], in [10], in [11], in test [18] and in test [12] was > 100 µM (inactive) each time.

Regarding `S=C(c1c[nH]c2ccccc12)N1CCN(Cc2ccccc2)CC1`, the GI50 was 16.5 µM (inactive) in [1]; 15.7 µM (inactive) in [2]; 19.2 µM (inactive) in test [3]; 16.1 µM (inactive) in test [15]; 14.4 µM (inactive) in test [16]; 15.6 µM (inactive) in test [4]. Besides, the GI50 in [5] was 18.5 µM (inactive); in test [6] it was 15.5 µM (inactive); in [19], 17 µM (inactive); in [7] it was 18.6 µM (inactive); in test [8], 14 µM (inactive); in test [17] it was 16.2 µM (inactive). For the same molecule, the GI50 was 19.5 µM (inactive) in [9]; 12.7 µM (inactive) in [10]; 15.7 µM (inactive) in [11]; 19.5 µM (inactive) in test [18]; 16.5 µM (inactive) in test [12].

Consider `CC(C)(C)C(=O)CC1=Nc2ccccc2SC1(O)CC(=O)C(C)(C)C` (centres undefined), for which the GI50 was 21 µM (inactive) in test [1]; 17.1 µM (inactive) in [2]; > 100 µM (inactive) in [3]; 23.5 µM (inactive) in [15]; 17 µM (inactive) in [16]; 11.8 µM (inactive) in [4]. For the same molecule, the GI50 was 30.9 µM (inactive) in [5]; 21.9 µM (inactive) in test [19]; 22.9 µM (inactive) in test [7]; 29.8 µM (inactive) in [8]; 19.8 µM (inactive) in test [17]; 25.8 µM (inactive) in test [9]. For the same molecule, the GI50 in [10] was 16 µM (inactive); in test [11], 24 µM (inactive); in test [18], 22.2 µM (inactive); in [12] it was 17.1 µM (inactive).

Regarding `C=C[C@@H]1OC(=O)O[C@H]1CO`, the GI50 in [1], in test [2], in [14], in [3], in test [16] and in test [4] was > 100 µM (inactive) in each case. Further, the GI50 in test [6], in [19], in test [8], in [17], in test [9] and in test [10] was > 100 µM (inactive) each time. Further, the GI50 in test [11], in test [18] and in test [12] was > 100 µM (inactive) throughout.

Regarding `C=C1CC2C[C@H](OS(=O)(=O)c3ccc(C)cc3)C(C1)N2C` (some centres undefined), the GI50 in test [1], in test [2], in [14], in test [15], in test [16] and in [4] was > 100 µM (inactive) each time. Moreover, the GI50 in [5] was > 100 µM (inactive); in test [6], 61.9 µM (inactive); in [19], > 100 µM (inactive); in test [7], > 100 µM (inactive); in test [8] it was > 100 µM (inactive); in test [9] it was > 100 µM (inactive). In addition, the GI50 in test [10], in test [11], in test [18] and in test [12] was > 100 µM (inactive) each time.

Take `Cc1ccc(C2CC(c3ccco3)=NN2c2ccccc2)o1` (centres undefined): the GI50 in [1], in test [2], in test [14], in [15], in test [16] and in [4] was > 100 µM (inactive) throughout. Moreover, the GI50 in test [5], in [6], in test [7], in test [8], in test [17] and in [9] was > 100 µM (inactive) throughout. The GI50 in test [10], in test [11], in [18] and in test [12] was > 100 µM (inactive) each time.

As to `COc1cc(Cn2c3c(c4c(CN(C)C)c(O)ccc42)C(=O)c2ccccc2C3=O)cc(OC)c1`, the GI50 in test [1] was 22.9 µM (inactive); in test [2], 16.6 µM (inactive); in test [14], 13.9 µM (inactive); in test [3] it was 10.1 µM (inactive); in [16] it was 24.2 µM (inactive); in test [4] it was 23.1 µM (inactive). Moreover, the GI50 in test [5] was 22.4 µM (inactive); in test [6], 0.414 µM (active); in test [19], 17.6 µM (inactive); in test [7], 16.3 µM (inactive); in test [8], 17.2 µM (inactive); in [17], 21.7 µM (inactive). For the same molecule, the GI50 in test [9] was 14.8 µM (inactive); in test [11] it was 13.6 µM (inactive); in test [18], 14.8 µM (inactive); in test [12] it was 26.9 µM (inactive).

Turning to `CC1C(OC2O[C@@H]3O[C@@]4(C)CC[C@H]5[C@H](C)CC[C@@H](C2C)[C@@]35O4)O[C@@H]2O[C@@]3(C)CC[C@H]4[C@H](C)CC[C@@H]1[C@@]24O3` (some centres undefined), the GI50 in test [1], in test [2], in test [14], in test [3], in [16] and in test [4] was > 50 µM (inactive) throughout. Besides, the GI50 in test [5], in test [6], in test [7], in [8], in test [17] and in test [9] was > 50 µM (inactive) in each case. The GI50 in [11], in [18] and in test [12] was > 50 µM (inactive) throughout.

`Cc1c(F)c(N)c2c(=O)cc(-c3ccc(NC(=O)CN(C)C)c(F)c3)oc2c1F`: the GI50 in test [1] was > 100 µM (inactive); in test [2] it was 33 µM (inactive); in [14] it was 23.6 µM (inactive); in test [3] it was 10 µM (inactive); in [15] it was > 100 µM (inactive); in [16], 0.0456 µM (active). For the same molecule, the GI50 was 26.4 µM (inactive) in [4]; 18.4 µM (inactive) in [5]; 68.7 µM (inactive) in test [19]; > 100 µM (inactive) in [7]; > 100 µM (inactive) in test [8]; 57 µM (inactive) in test [17]. The GI50 in [9] is 28.4 µM (inactive); in test [10], 38 µM (inactive); in test [11], > 100 µM (inactive); in test [18], 24.8 µM (inactive); in [12], 33.6 µM (inactive).

Take `O=C(Nc1ccc2nc(O)n[n+]([O-])c2c1)C(F)(F)F`: the GI50 in [1], in test [2], in test [14], in [3], in test [16] and in test [4] was > 100 µM (inactive) in each case. Moreover, the GI50 in test [5], in test [6], in test [19], in [7], in test [8] and in test [17] was > 100 µM (inactive) throughout. The GI50 in [9], in test [10], in test [11], in test [18] and in test [12] was > 100 µM (inactive) each time.

`CC(C)[C@H](NC(=O)[C@H](C(C)C)N(Cc1ccccc1)Cc1ccccc1)C(=O)N(C)[C@H](C(=O)N1CCC[C@H]1C(=O)N(C)[C@H](C)C(=O)NCc1ccc2c(c1)OCO2)C(C)C` (Bn2Val-V[NMeV]P[dNMeA]-NHPiperonyl): the GI50 in test [2] is 5.9 µM (inactive); in [14], 5.85 µM (inactive); in [16], 5.01 µM (inactive); in test [4], 13 µM (inactive); in test [5], 1.17 µM (inactive); in test [19], 2.91 µM (inactive). Further, the GI50 in test [7] is 3.37 µM (inactive); in test [8] it was 25.5 µM (inactive); in test [17] it was 4.38 µM (inactive); in test [9] it was 17.7 µM (inactive); in test [10] it was 3.95 µM (inactive); in test [11] it was 3.48 µM (inactive). The GI50 in test [18] is 4.33 µM (inactive); in test [12] it was 3.03 µM (inactive).

The values above are taken from ChEMBL document CHEMBL1201862, “PubChem BioAssay data set” (2004).
